Read-outs that look alike come from different tables or passages of the source.
Molecular target: Human Factor XIa (Homo sapiens (Human), UniProt P03951)
Assay: Factor XIa enzyme activity (chromogenic substrate S-2366)
Assay type: biochemical
Settings: read-out: In vitro FXIa inhibitory activity IC50
Experimental: Inhibitory activities of compounds of the present invention against factor XIa, Xa, XIIa, IXa, VIIa, plasma kallikrein or thrombin were evaluated using appropriate purified proteases and synthetic substrates. The rate of hydrolysis of the chromogenic substrate by the relevant protease was continuously measured at 405 nm.
Inhibitory activity against each enzyme was calculated as % inhibition using the equation described below. % Inhibition=[[(rate without compound)−(rate with compound)](rate without compound)]×100%. Each half maximal inhibitory concentration (IC50) value was determined by plotting the concentration of compound of the invention against the % inhibition. (1-1) Factor XIa Enzyme Activity
Human Factor XIa (Haematologic Technologies Inc.) activity was measured at an enzyme concentration of 0.1 U/mL in 150 mM NaCl, 5 mM KCl, 1 mg/mL PEG6000, 50 mM HEPES-NaOH (pH7.4) with 300 μM S-2366 (pyroGlu-Pro-Arg-pNA, Chromogenix).

[1] = human Factor XIa 0.1 U/mL, 300 μM S-2366, pH7.4

Chain of Human Factor XIa (P03951 388-625): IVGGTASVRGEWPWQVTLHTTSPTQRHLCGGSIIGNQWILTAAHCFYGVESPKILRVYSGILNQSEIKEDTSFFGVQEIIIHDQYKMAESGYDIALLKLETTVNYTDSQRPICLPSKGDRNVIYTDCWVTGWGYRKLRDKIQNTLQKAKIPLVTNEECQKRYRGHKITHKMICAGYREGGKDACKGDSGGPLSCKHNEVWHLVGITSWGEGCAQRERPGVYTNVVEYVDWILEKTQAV
Chain of Human Factor XIa (P03951 19-387 partner): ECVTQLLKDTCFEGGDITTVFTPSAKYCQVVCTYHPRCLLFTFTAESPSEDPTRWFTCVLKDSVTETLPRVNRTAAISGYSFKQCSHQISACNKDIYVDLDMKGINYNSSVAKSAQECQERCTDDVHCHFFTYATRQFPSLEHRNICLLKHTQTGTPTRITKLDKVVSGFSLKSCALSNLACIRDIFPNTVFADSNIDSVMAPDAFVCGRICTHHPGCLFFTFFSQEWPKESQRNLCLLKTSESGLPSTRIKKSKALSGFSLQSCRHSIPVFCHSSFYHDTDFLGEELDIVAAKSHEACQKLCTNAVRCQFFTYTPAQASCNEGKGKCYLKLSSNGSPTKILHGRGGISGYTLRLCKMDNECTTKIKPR

Compound: COCCOC(=O)Nc1ccc(-c2cnc(C3CCc4cc(-c5cc(Cl)ccc5-n5cnnn5)cc(=O)n43)[nH]2)cc1 (stereo not drawn) [129(2), 2-methoxyethyl[4-(2-{7-[5-chloro-2-(1H-tetrazol-1-yl)phenyl]-5-oxo-1,2,3,5-tetrahydro-3-indolizinyl}-1H-imidazol-5-yl)phenyl]carbamate]
- IC50 [1]: 4.6 nM

Compound: COc1cc(Nc2ccc3n(c2=O)C(c2ccc(F)cc2)CCC3)ccc1-n1cnc(C)c1 (stereo not drawn) [Comp. Ex 4, reference compound]
- IC50 (Table 2, comparison with comparative compounds): > 10000 nM

Compound: CCC(c1nc(-c2ccc(NC(=O)OC)cc2)c(Cl)[nH]1)n1ccc(-c2cc(Cl)ccc2-n2cnnn2)cc1=O (stereo not drawn) [Example 60, methyl{4-[5-chloro-2-(1-{4-[5-chloro-2-(1H-tetrazol-1-yl)phenyl]-2-oxo-1(2H)-pyridinyl}propyl)-1H-imidazol-4-yl]phenyl}carbamate]
- IC50 [1]: 7.2 nM

Compound: COC(=O)Nc1ccc(-c2cnc(C(C)n3ccc(-c4cc(Cl)ccc4-n4cnnn4)cc3=O)[nH]2)cc1 (stereo not drawn) [Example 61, methyl{4-[2-(1-{4-[5-chloro-2-(1H-tetrazol-1-yl)phenyl]-2-oxo-1(2H)-pyridinyl}ethyl)-1H-imidazol-5-yl]phenyl}carbamate]
- IC50 [1]: 14 nM

Compound: O=C1CCc2cc(-c3c[nH]c(C4CCc5cc(-c6cc(Cl)ccc6-n6cnnn6)cc(=O)n54)n3)ccc2N1 (stereo not drawn) [Example 86, 6-(2-{7-[5-chloro-2-(1H-tetrazol-1-yl)phenyl]-5-oxo-1,2,3,5-tetrahydro-3-indolizinyl}-1H-imidazol-4-yl)-3,4-dihydro-2(1H)-quinolinone]
- IC50 [1]: 3.9 nM

Compound: COC(=O)Nc1ccc(-c2cnc(C3CCc4cc(-c5cc(Cl)ccc5-n5cnnn5)cc(=O)n43)[nH]2)s1 (stereo not drawn) [Example 181, methyl[5-(2-{7-[5-chloro-2-(1H-tetrazol-1-yl)phenyl]-5-oxo-1,2,3,5-tetrahydro-3-indolizinyl}-1H-imidazol-5-yl)-2-thienyl]carbamate]
- IC50 [1]: 47 nM

Compound: Nc1ccc(-c2[nH]c([C@@H]3CCc4cc(-c5cc(Cl)ccc5-n5cnnn5)cc(=O)n43)nc2Cl)cn1 [Example 198, (3S)-3-[5-(6-amino-3-pyridinyl)-4-chloro-1H-imidazol-2-yl]-7-[5-chloro-2-(1H-tetrazol-1-yl)phenyl]-2,3-dihydro-5(1H)-indolizinone]
- IC50 [1]: 1.5 nM

Compound: Nc1ccc(-c2cnc([C@@H]3CCc4cc(-c5cc(Cl)ccc5-n5cnnn5)cc(=O)n43)[nH]2)c(Cl)n1 [Example 210, (3S)-3-[5-(6-amino-2-chloro-3-pyridinyl)-1H-imidazol-2-yl]-7-[5-chloro-2-(1H-tetrazol-1-yl)phenyl]-2,3-dihydro-5(1H)-indolizinone]
- IC50 [1]: 2.8 nM

Compound: Nc1ccc(-c2cnc([C@@H]3CCc4cc(-c5cc(Cl)ccc5-n5cnnn5)cc(=O)n43)[nH]2)c(F)n1 [Example 216, (3S)-3-[5-(6-amino-2-fluoro-3-pyridinyl)-1H-imidazol-2-yl]-7-[5-chloro-2-(1H-tetrazol-1-yl)phenyl]-2,3-dihydro-5(1H)-indolizinone]
- IC50 [1]: 3.8 nM

Compound: COC(=O)Nc1ccc(-c2[nH]c([C@@H]3CCc4cc(-c5cc(Cl)ccc5-n5cnnn5)cc(=O)n43)nc2Cl)nc1 [Example 230, methyl[6-(4-chloro-2-{(3S)-7-[5-chloro-2-(1H-tetrazol-1-yl)phenyl]-5-oxo-1,2,3,5-tetrahydro-3-indolizinyl}-1H-imidazol-5-yl)-3-pyridinyl]carbamate]
- IC50 [1]: 11 nM

Compound: COC(=O)Nc1ccc(-c2nc(Cl)c(C3CCc4cc(-c5cc(Cl)ccc5-n5cnnn5)cc(=O)n43)[nH]2)cc1 (stereo not drawn) [Example 241, methyl[4-(4-chloro-5-{7-[5-chloro-2-(1H-tetrazol-1-yl)phenyl]-5-oxo-1,2,3,5-tetrahydro-3-indolizinyl}-1H-imidazol-2-yl)phenyl]carbamate]
- IC50 [1]: 4.8 nM

Compound: COC(=O)Nc1ccc(-c2nnc(C3CCc4cc(-c5cc(Cl)ccc5-n5cnnn5)cc(=O)n43)[nH]2)cc1 (stereo not drawn) [Example 245, methyl[4-(5-{7-[5-chloro-2-(1H-tetrazol-1-yl)phenyl]-5-oxo-1,2,3,5-tetrahydro-3-indolizinyl}-4H-1,2,4-triazol-3-yl)phenyl]carbamate]
- IC50 [1]: 17 nM

— patent US9732085B2, “Pyridinone and pyrimidinone derivatives as factor Xia” (ONO PHARMACEUTICAL CO., LTD., priority 2011, dated 2017)
